Experiment [1] deals with ppMlc (T18/S19) levels in A7R5 cells. In words: A7R5 in-cell ELISA (pMLC). In kind it is cell-based, Rat. The note with it: Rattus norvegicus, A7R5, A7R5 cells; for inhibition at 10 µM: 10 μM compound, read-out: pMLC % inh A7R5 @ [conc]; for IC50: ppMlc (T18/S19). In short, it runs like this:
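A7R5 rat aortic smooth muscle cells seeded 24 h, then treated 90 min with a 9-point 2-fold compound dilution series. Fixed cells probed for ppMlc (T18/S19) by colorimetric in-cell ELISA; cellular IC50 from nonlinear regression curve fit.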
A general note: An ELISA detects its analyte on a solid surface through an enzyme-linked reagent.

The target in experiment [2] is Recombinant ROCK2 (amino acids 1-552) (Homo sapiens (Human), UniProt O75116). In words: Z′-Lyte kinase assay, ROCK2. In kind it is biochemical. The note with it: for inhibition at 1 µM: 1 μM compound; for inhibition at 1 µM / inhibition at 0.5 µM: read-out: ROCK2 % inh. @ [conc]; for inhibition at 0.5 µM: 0.5 μM compound. The method, then: Determination of Compound's ROCK Inhibitory Activity In Vitro (Z'Lyte Assay).
Sequence of Recombinant ROCK2 (amino acids 1-552) (O75116 1-552): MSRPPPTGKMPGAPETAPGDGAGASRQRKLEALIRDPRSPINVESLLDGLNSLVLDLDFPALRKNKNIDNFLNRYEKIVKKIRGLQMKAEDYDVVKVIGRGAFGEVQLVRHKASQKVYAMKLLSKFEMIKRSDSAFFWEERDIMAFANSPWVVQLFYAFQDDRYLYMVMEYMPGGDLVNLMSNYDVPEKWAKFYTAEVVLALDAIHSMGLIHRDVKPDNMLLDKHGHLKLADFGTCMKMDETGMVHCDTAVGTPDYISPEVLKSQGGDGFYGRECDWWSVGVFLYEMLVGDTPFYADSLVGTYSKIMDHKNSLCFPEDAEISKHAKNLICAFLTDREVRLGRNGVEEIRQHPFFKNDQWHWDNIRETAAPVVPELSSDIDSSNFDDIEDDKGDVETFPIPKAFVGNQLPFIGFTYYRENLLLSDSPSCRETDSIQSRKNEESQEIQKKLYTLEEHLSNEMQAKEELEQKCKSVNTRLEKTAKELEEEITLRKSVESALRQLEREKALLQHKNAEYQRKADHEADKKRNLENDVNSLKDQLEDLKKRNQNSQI
Recombinant ROCK1 (amino acids 1-535) and ROCK2 (amino acids 1-552) proteins were purchased from ThermoFisher Scientific. Compound's activities were measured by Z′-lyte kinase kit (ThermoFisher Scientific) and IC50 was calculated
In vitro activities for the compounds were measured with Z′-lyte kinase kit (ThermoFisher Scientific). The percent inhibition rate was calculated by normalizing the kinase activity value obtained with 1 μM compound treatment against DMSO control value and then applied to the formula, [1-(compound/DMSO)]×100%. IC50s were calculated using the nonlinear regression curve fit function of the GraphPad Prism software with kinase activities data measured with 9 points 2-fold serial dilution of compounds treatment. In cell pMLC IC50s were calculated with data obtained from A7R5 cell experiments. A7R5 cells were treated with 9 points 2-fold serial dilution of compounds and ppMlc (T18/S19) levels were determined to calculate cellular IC50 values of the compounds using the nonlinear regression curve fit function of the GraphPad Prism software. NIH3T3 cells stably expressing ACTA2-promoter-driven-luciferase were applied to measure ROCK compounds functional IC50s in cells. Cells were plated in 96 well plates to confluence and treated with 9 points serial dilution of compounds in combination with TGFβ1 for 24 hr. Luciferase activities were measured and compound's IC50s were calculated using the nonlinear regression curve fit function of the GraphPad Prism software.

25 molecules from US11613531B2, “Inhibitors of RHO associated coiled-coil containing protein kinase” (Kadmon Corporation, LLC, priority 2017, dated 2023) can be followed below.

Read-outs that look alike come from different tables or passages of the source.

Consider `Clc1cnc(N2CCCNCC2)nc1Nc1ccc2[nH]ncc2c1` [Example 4, N-(5-chloro-2-(1,4-diazepan-1-yl)pyrimidin-4-yl)-1H-indazol-5-amine], for which, in experiment [1], the inhibition at 10 µM was determined as 95.3% and the IC50 was 312 nM. Moreover, the IC50 in experiment [2] (9 points 2-fold serial dilution) turned out to be 0.139 µM.

As to `c1ccc2c(Nc3ccc4[nH]ncc4c3)nc(N3CCCNCC3)nc2c1` [Example 6, 2-(1,4-diazepan-1-yl)-N-(1H-indazol-5-yl)quinazolin-4-amine], in experiment [1], the inhibition at 10 µM came to 94.6% and the IC50 worked out at 1800 nM. The inhibition at 1 µM in experiment [2] was found to be 85.7%.

As to `Cc1nc(N2CCCNCC2)nc(Nc2ccc3[nH]ncc3c2)c1C` [Example 8, N-(2-(1,4-diazepan-1-yl)-5,6-dimethylpyrimidin-4-yl)-1H-indazol-5-amine], in experiment [1], the inhibition at 10 µM is 89% and the IC50 amounted to 1600 nM. Further, the inhibition at 1 µM in experiment [2] was found to be 83.3%.

On to `c1cc2[nH]ncc2cc1Nc1nc(N2CCCNCC2)nc2c1CCCC2` [Example 9, 2-(1,4-diazepan-1-yl)-N-(1H-indazol-5-yl)-5,6,7,8-tetrahydroquinazolin-4-amine], for which, in experiment [1], the inhibition at 10 µM came out at 93.5% and the IC50 was found to be 1200 nM. Further, the inhibition at 1 µM in experiment [2] is 98.7%.

Turning to `c1cc2[nH]ncc2cc1Nc1nc(N2CCCNCC2)nc2c1CSC2` [Example 12, 2-(1,4-diazepan-1-yl)-N-(1H-indazol-5-yl)-5,7-dihydrothieno[3,4-d]pyrimidin-4-amine], in experiment [1], the inhibition at 10 µM was found to be 95% and the IC50 was found to be 839 nM. Further, the inhibition at 1 µM in experiment [2] was determined as 97.3%.

In the case of `Cc1nc(N2CCNC(C)C2)nc(Nc2ccc3[nH]ncc3c2)c1C` (centres unmarked) [Example 13, N-(5,6-dimethyl-2-(3-methylpiperazin-1-yl)pyrimidin-4-yl)-1H-indazol-5-amine], in experiment [1], the inhibition at 10 µM stood at 51.1% and the IC50 was 1490 nM. In experiment [2], the inhibition at 1 µM was 58.1%.

For the molecule `CCC1CN(c2nc(C)c(C)c(Nc3ccc4[nH]ncc4c3)n2)CCN1` (centres unmarked) [Example 14, N-(2-(3-ethylpiperazin-1-yl)-5,6-dimethylpyrimidin-4-yl)-1H-indazol-5-amine], the inhibition at 10 µM in experiment [1] was found to be 48.9%. Also, the inhibition at 1 µM in experiment [2] amounted to 33.3%.

As to `Cc1nc(N2CCNC(C(C)C)C2)nc(Nc2ccc3[nH]ncc3c2)c1C` (centres unmarked) [Example 15, N-(2-(3-isopropylpiperazin-1-yl)-5,6-dimethylpyrimidin-4-yl)-1H-indazol-5-amine], the inhibition at 10 µM in experiment [1] turned out to be 26.4%. In experiment [2], the inhibition at 1 µM is 8%.

With `Cc1nc(N2CCNC(C(C)C)CC2)nc(Nc2ccc3[nH]ncc3c2)c1C` (centres unmarked) [Example 19, N-(2-(5-isopropyl-1,4-diazepan-1-yl)-5,6-dimethylpyrimidin-4-yl)-1H-indazol-5-amine], in experiment [1], the inhibition at 10 µM was 31.8%. For the same molecule, in experiment [2], the inhibition at 1 µM came to 4.6%.

Turning to `Cc1nc(N2CCCNC(C)C2)nc(Nc2ccc3[nH]ncc3c2)c1C` (centres unmarked) [Example 22, N-(5,6-dimethyl-2-(3-methyl-1,4-diazepan-1-yl)pyrimidin-4-yl)-1H-indazol-5-amine], in experiment [1], the inhibition at 10 µM came to 54.2% and the IC50 was 1390 nM. Further, the inhibition at 1 µM in experiment [2] turned out to be 76.5%.

With `CCC1CCN(c2nc(C)c(C)c(Nc3ccc4[nH]ncc4c3)n2)CCN1` (centres unmarked) [Example 23, N-(2-(5-ethyl-1,4-diazepan-1-yl)-5,6-dimethylpyrimidin-4-yl)-1H-indazol-5-amine], the inhibition at 10 µM in experiment [1] is 46.4%. Moreover, the inhibition at 1 µM in experiment [2] stood at 29.5%.

As to `Cc1nc(N2CCNC(C)CC2)nc(Nc2ccc3[nH]ncc3c2)c1C` (centres unmarked) [Example 25, N-(5,6-dimethyl-2-(5-methyl-1,4-diazepan-1-yl)pyrimidin-4-yl)-1H-indazol-5-amine], the inhibition at 10 µM in experiment [1] was found to be 48.3%. The inhibition at 1 µM in experiment [2] worked out at 52.9%.

For `c1cc(Nc2ccc3[nH]ncc3c2)nc(N2CCOCC2)n1` [Example 33, N-(2-morpholinopyrimidin-4-yl)-1H-indazol-5-amine], the concentration for half-maximal inhibition (IC50) in experiment [2] is more than 10 µM.

As for `Fc1cnc(N2CC(C3CCNCC3)c3ccccc32)nc1Nc1ccc2[nH]ncc2c1` (centres unmarked) [Example 175, N-(5-fluoro-2-(3-(piperidin-4-yl)indolin-1-yl)pyrimidin-4-yl)-1H-indazol-5-amine], in experiment [2], the inhibition at 1 µM was determined as 10.5%.

For `OC1CC2CCC(C1)N2c1nccc(Nc2ccc3[nH]ncc3c2)n1` (centres unmarked) [Example 223, 8-(4-((1H-indazol-5-yl)amino)pyrimidin-2-yl)-8-azabicyclo[3.2.1]octan-3-ol], the IC50 in experiment [2] came to 0.0158 µM.

In the case of `c1cc(-c2ccc(Nc3nc(N4C5CNCC4C5)nc4c3CNC4)cc2)ccn1` [Example 292, 2-(3,6-diazabicyclo[3.1.1]heptan-6-yl)-N-(4-(pyridin-4-yl)phenyl)-6,7-dihydro-5H-pyrrolo[3,4-d]pyrimidin-4-amine], the inhibition at 0.5 µM in experiment [2] came to 10%.

Consider `Cc1c(Nc2nc(N3C4CNCC3C4)ncc2Cl)ccc2[nH]ncc12` [Example 293, N-(2-(3,6-diazabicyclo[3.1.1]heptan-6-yl)-5-chloropyrimidin-4-yl)-4-methyl-1H-indazol-5-amine], for which, in experiment [2], the inhibition at 0.5 µM is 1%.

As to `Cc1c(Nc2nc(N3C4CCC3CNC4)ncc2Cl)ccc2[nH]ncc12` [Example 294, N-(2-(3,8-diazabicyclo[3.2.1]octan-8-yl)-5-chloropyrimidin-4-yl)-4-methyl-1H-indazol-5-amine], the inhibition at 0.5 µM in experiment [2] came out at 0%.

For `c1cc(-c2ccc(Nc3nc(N4C5CNCC4C5)nc4c3COCC4)cc2)ccn1` [Example 311, 2-(3,6-diazabicyclo[3.1.1]heptan-6-yl)-N-(4-(pyridin-4-yl)phenyl)-7,8-dihydro-5H-pyrano[4,3-d]pyrimidin-4-amine], the IC50 in experiment [2] is more than 1 µM.

On to `c1cc(-c2ccc(Nc3nc(N4C5CNCC4C5)nc4c3COC4)cc2)ccn1` [Example 312, 2-(3,6-diazabicyclo[3.1.1]heptan-6-yl)-N-(4-(pyridin-4-yl)phenyl)-5,7-dihydrofuro[3,4-d]pyrimidin-4-amine], for which the IC50 in experiment [2] is more than 1 µM.

For `Cc1cc2[nH]ncc2cc1Nc1nc(N2C3CCC2CNC3)ncc1Cl` [Example 318, N-(2-(3,8-diazabicyclo[3.2.1]octan-8-yl)-5-chloropyrimidin-4-yl)-6-methyl-1H-indazol-5-amine], the inhibition at 0.5 µM in experiment [2] is 50%.

With `Clc1cnc(N2CC3CNCC(C2)O3)nc1Nc1ccc2[nH]ncc2c1` [Example 325, N-(2-((1,5)-9-oxa-3,7-diazabicyclo[3.3.1]nonan-3-yl)-5-chloropyrimidin-4-yl)-1H-indazol-5-amine], the inhibition at 0.5 µM in experiment [2] was found to be 25%.

As to `c1ccc2c(Nc3ccc4[nH]ncc4c3)nc(N3C4CCC3CNC4)nc2c1` [Example 330, 2-(3,8-diazabicyclo[3.2.1]octan-8-yl)-N-(1H-indazol-5-yl)quinazolin-4-amine], the IC50 in experiment [2] worked out at 0.011 µM.

In the case of `CN(C)C1CC2CC1CN2c1ncc(F)c(Nc2ccc3[nH]ncc3c2)n1` (centres unmarked) [Example 335, N-(2-(5-(dimethylamino)-2-azabicyclo[2.2.1]heptan-2-yl)-5-fluoropyrimidin-4-yl)-1H-indazol-5-amine], in experiment [2], the IC50 is more than 1 µM.

`CN(C)C1CC2CCC(C1)N2c1nccc(Nc2ccc3[nH]ncc3c2)n1` (centres unmarked) [Example 337, N-(2-(3-(dimethylamino)-8-azabicyclo[3.2.1]octan-8-yl)pyrimidin-4-yl)-1H-indazol-5-amine]: in experiment [2], the IC50 was more than 1 µM.

For orientation: IC50 means the concentration needed to halve the response being measured.
